Test results published in patent publication US20070276034A1, “Compounds, compositions and methods for the treatment of synucleinopathies” (priority 2002, published 2007).

Tests used:
[1] = tested on: BE-M17 human neuroblastoma cells overexpressing A53T α-synuclein; assay: Thioflavin S aggregation assay in rotenone-treated cells; assay type: cell-based; settings: 500 nM, 1 μM or 5 μM rotenone (FIGS. 4A-E)
From the text: (§1) Therefore, to test the therapeutic potential of the compounds, two cell-based assays were utilized. In both assays, rotenone is used to induce mitochondrial oxidative stress and α-synuclein aggregation. The first assay utilizes the binding of the fluorescent dye thioflavin S to structures with high β-sheet content including α-synuclein fibrils. Therefore, quantitative assessment of the extent of thioflavin S-positive staining of fixed cells is used to test the ability of the compounds to decrease the amount of α-synuclein aggregates. In the second assay, cell viability is assessed using the XTT Cytotoxicity assay, which is dependent on intact, functional mitochondria in live cells. Thus, the XTT Cytotoxicity assay is used to test the ability of the compounds to ameliorate the mitochondrial toxicity and resulting loss of viability associated with the accumulation of α-synuclein aggregates. Phrased another way, the XTT Cytotoxicity assay is used to gauge the compounds neuroprotective efficacy. These studies are presented in the following examples.
(§2) BE-M17 human neuroblastoma cells stably transfected with A53T-mutant human α-synuclein were obtained. Cell culture reagents were obtained from Gibco/Invitrogen, and cells were grown in OPTIMEM supplemented with 10% FBS, Penicillin (100 units/mil)-Streptomycin (100 μg/ml) and 500 μg/ml G418 as previously described (Ostrerova-Golts et al., J. Neurosci., 20:6048-6054, 2000).
Thioflavin S is commonly used to detect amyloid-containing structures in situ, including in brain tissue (Vallet et al., Acta Neuropathol., 83:170-178, 1992), and cultured cells (Ostrerova-Golts et al., J. Neurosci., 20:6048-6054, 2000), whereas thioflavin T is often used as an in vitro reagent to analyze the aggregation of soluble amyloid proteins into fibrils enriched in β-pleated sheet structures (LeVine III, Prot. Sci., 2:404-410, 1993). Therefore, Thioflavin S histochemistry was used on cultured cells to detect aggregates containing a high degree of […] structures that formed in response to oxidative stress-inducing agents (in this case rotenone) as previously described, with minor modifications (Ostrerova-Golts et al., J. Neurosci, 20:6048-6054, 2000). Briefly, for these studies, cells were grown on Poly-D-Lysine coated glass slide chambers at approximately 3×10^4 cells/cm^2. After 24 hours, cells were treated with 500 nM, 1 μM or 5 μM rotenone (Sigma) or vehicle (0.05% DMSO) as indicated. Immediately after rotenone (or vehicle) addition, compounds were added at the indicated concentration, or cell culture media only (no compound) in the presence of rotenone was added. Identical treatments were repeated after 48 hours. After an additional 48 hours, cells were fixed for 25 minutes in 3% paraformaldehyde. After a PBS wash, the cells were incubated with 0.015% thioflavin S in 50% ethanol for 25 minutes, washed twice for four minutes in 50% ethanol and twice for five minutes in deionized water and then mounted using an aqueous-based mountant designed to protect against photobleaching. Aggregates that bind to thioflavin S were detected with a fluorescent microscope using a High Q FITC filter set (480 to 535 nm bandwidth) and a 20× objective lens unless otherwise indicated. Between 8 and 16 representative images per condition were selected, imaged and processed by an experimenter who was blinded to treatment conditions. To assess the amount of thioflavin S-positive aggregates, the total area per field covered by thioflavin S-positive inclusions was determined. […] Spurious, non-cell associated fluorescence was manually removed. Unless indicated otherwise, data represent group means ±SEM. Statistical analyses were performed with GraphPad Prism (GraphPad Inc). Differences between means (two samples) were assessed by the […]. Differences among multiple means were assessed by one-factor ANOVA followed by Tukey's multiple comparison test.

[2] = tested on: A53T α-synuclein-expressing BE-M17 cells; assay: XTT Cytotoxicity assay - protection against rotenone-induced cytotoxicity; assay type: cell-based; settings: 40-44 hours
From the text: as §1, §2
Research has shown that the accumulation of α-synuclein fibrils in Lewy bodies contributes mechanistically to the degradation of neurons in Parkinson's disease and related disorders (Polymeropoulos et al., Science 276:2045-2047, 1997; Kruger et al., Nature Genet. 18:106-108, 1998). Here, the XTT Cytotoxicity assay (hereafter referred to as the XTT assay) was used to measure the ability of test compounds to protect against rotenone-induced cytotoxicity (neuroprotective ability). The assay is based on the principle that conversion of the yellow tetrazolium salt XTT to form an orange formazan dye (that absorbs light around 490 nm) occurs only in metabolically active, viable cells. Therefore, light absorbance at 490 nm is proportional to cell viability. For this assay, cells were plated in 96 well tissue culture dishes at 10^4 cells per well. After 24 hours, cells were treated with 500 nM or 2 μM rotenone, or vehicle (0.05% DMSO) as indicated. Immediately after rotenone addition, compounds were added at the indicated concentration. […] Untreated cells received cell culture media only (no compound, with or without rotenone). After 40-44 hours of treatment, conditioned media was removed and replaced with 100 μl fresh media and 50 μl XTT labeling reaction mixture according to the manufacturer's recommendations. Four to five hours later, the absorbance at 490 nm was measured and corrected for absorbance at the 700 nm reference wavelength. […] Percent inhibition of cell death was calculated as the proportion of the rotenone-induced absorbance (viability) decrease that was eliminated by test compound treatment.

C=C(C)[C@H]1Cc2c(ccc3c2O[C@@H]2COc4cc(OC)c(OC)cc4[C@@H]2C3=O)O1 [rotenone, reference compound]
thioflavin S-positive aggregates relative to vehicle-treated control cells [1]: dose-dependent increase in thioflavin S-positive aggregates
decrease of viability relative to untreated cells ([2]; 500 nM rotenone): 30-40%
decrease of viability relative to untreated cells ([2]; 2 μM rotenone): 40-50%
